What all share (assay): biochemical
Assay [1] has as its target T1, A9UPE9 PDZ (Monosiga brevicollis, UniProt A9UPE9). An excerpt:
(§1) Starting with the HPV18 E6 C-terminal sequence, we designed a number of peptides to test specific peptide positions, including HPV16 E6, HPV18 E6, SRETTV, SRETDV, RRETTV, and RRETDV, where underlined residues differ from HPV18 E6. As a control, we also tested human SNX27, SHANK1, and GIPC PDZ targets previously studied, including GIRK3 (sequence: ESESKV), BPIX (WDETNL), GAIP (QSSSEA), TYRP1 (PNQSVV), and B1AR (ASESKV), as well as previously identified mbSHANK targets, including A9V7Z4 (EDETAL), A9UP44 (QSESRL), and A9UXE1 (QDETAL).
(§2) Figure 6 The binding isotherms from competition fluorescence polarization experiments of A9UPE9 (left, as labeled), and DLG1-1 (right, as labeled) PDZ domains are shown with the HPV18 E6 variant peptides SRETTV and SRETDV. The average values are shown, with error bars representing standard deviation from at least triplicate experiments.
(§3) Cells were lysed on ice using sonication.
(§4) Binding curves were visualized using Kaleidagraph.

For the next assay, the target named is DLG1-1 PDZ (Homo sapiens, UniProt Q12959).
DLG1-1 PDZ, sequence (Q12959 220-317): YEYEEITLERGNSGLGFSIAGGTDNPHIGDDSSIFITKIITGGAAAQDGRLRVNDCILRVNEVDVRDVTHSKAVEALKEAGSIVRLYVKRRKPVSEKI
Excerpt: as §1, §2, §3, §4

In assay [2] the target is T1, A9UPE9 PDZ. Particulars: fluorescence polarization.
Procedure: Expression and purification of all human and M. brevicollis PDZ domains followed a similar protocol, as previously reported for mbSHANK1 PDZ [48, 54]. Briefly, N-terminal His-tagged versions of A9UPE9 PDZ (residues 7–98) and DLG1-1 PDZ (residues 220–317) with cleavable TEV sites were inserted into the pET28a+ vector by gene synthesis (GenScript) and expressed in Escherichia coli BL21 (DE3) cells. Cells were lysed on ice using sonication. The lysis buffer used was 50 mM Tris pH 8.5, 200 mM NaCl, 10 mM CaCl2, 10 mM MgCl2, 20% (w/v) glycerol, 50 mM imidazole pH 8.5, 0.25 mM TCEP, DNAse, and protease inhibitor cocktail. Immobilized metal-affinity chromatography, 5 mL HisTrap (GE Healthcare, now Cytiva), was used to purify proteins from the clarified supernatant. The wash buffer used was 25 mM imidazole pH 8.5, 25 mM Tris pH 8.5, 250 mM NaCl, 10% (v/v) glycerol, and 0.25 mM TCEP, and the elution buffer was 400 mM imidazole pH 8.5, 25 mM Tris pH 8.5, 50 mM NaCl, 10% (v/v) glycerol, and 0.25 mM TCEP. Except for the protein used in binding experiments, the protein was then dialyzed in dialysis/gel filtration buffer (25 mM Tris pH 8.5, 150 mM NaCl, 10% (w/v) glycerol, 0.5 mM TCEP) and incubated at 4 °C overnight with TEV protease to cleave off the His-tag. The cleaved protein was then purified using a second nickel column with the wash and elution buffers described above. All proteins were further purified on a Superdex S75 column (Cytiva), using gel filtration buffer. Proteins were concentrated using Amicon centrifugal concentrators (3 MWCO). Concentrated proteins used in fluorescence polarization assays were flash frozen in liquid nitrogen for storage at −80 °C. The extinction coefficient values used for quantification of the proteins at A280 were 1490 cm^−1·M^−1 (A9UPE9) and 4470 cm^−1·M^−1 (DLG1-1).
Fluorescence polarization assays were conducted, as previously described [12, 45, 46, 48, 54, 60]. […] Competition experiments were performed in at least triplicate, and binding affinities were determined using SOLVER, as previously described [12, 45, 46, 48, 54, 60].
Where [3] appears, read: KI Values (μM) A9UPE9 PDZ, Table 3, competition FP, reporter 30 nM F*-HPV18 E6, 10.5 μM protein, at least triplicate, fitted with SOLVER.

Structures are written as SMILES. Where “and” joins values, the source holds several entries; their conditions need not be identical. Equal entries are not always repeated. Where two headings read alike, the source gives them in different places. Peptide text beside a SMILES is read from it.

T1 sequence (A9UPE9 7-98): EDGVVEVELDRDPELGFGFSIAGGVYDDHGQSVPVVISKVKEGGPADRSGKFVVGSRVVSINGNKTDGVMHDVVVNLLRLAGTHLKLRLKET

As for `CC(C)C[C@H](NC(=O)[C@H](C)NC(=O)[C@@H](NC(=O)[C@H](CCC(=O)O)NC(=O)[C@H](CC(=O)O)NC(=O)[C@@H](N)CCC(N)=O)[C@@H](C)O)C(=O)O` [Peptide A9UXE1] (H-QDETAL-OH), affinity on A9UPE9 PDZ [1] (setting [3]) was put at a Ki of 460 ± 210 µM.
Still for that read-out and setting: under `CC(C)C[C@H](NC(=O)[C@H](CCC(N)=O)NC(=O)[C@@H](NC(=O)[C@H](CCC(=O)O)NC(=O)[C@H](CCCNC(=N)N)NC(=O)[C@H](CCCNC(=N)N)NC(=O)[C@@H](NC(=O)[C@H](CCCNC(=N)N)NC(=O)[C@H](CO)NC(=O)[C@@H](N)CO)[C@@H](C)O)[C@@H](C)O)C(=O)O` [HPV16 E6] stands 66 ± 24 µM.
As for `CC[C@H](C)[C@H](NC(=O)[C@@H](N)C(C)C)C(=O)N[C@@H](C)C(=O)N[C@H](C(=O)N[C@@H](CCC(=O)O)C(=O)N[C@H](C(=O)O)C(C)C)[C@@H](C)O` [DLL1/DLL4] (H-VIATEV-OH), affinity on A9UPE9 PDZ [1] was put at a Ki of 240 ± 40 µM.
Regarding `CC(C)[C@H](NC(=O)[C@@H](NC(=O)[C@H](CO)NC(=O)[C@H](CCC(N)=O)NC(=O)[C@H](CC(N)=O)NC(=O)[C@@H]1CCCN1)C(C)C)C(=O)O` [TYRP1] (H-PNQSVV-OH), the inhibitory constant (Ki) (commonly a measure of affinity in units of concentration, obtained from inhibition or displacement) on A9UPE9 PDZ [1] (setting [3]) was 97 ± 24 µM.
For the compound `CC(C)C[C@H](NC(=O)[C@H](C)NC(=O)[C@@H](NC(=O)[C@H](CCC(=O)O)NC(=O)[C@H](CC(=O)O)NC(=O)[C@@H](N)CCC(=O)O)[C@@H](C)O)C(=O)O` [Peptide A9V7Z4] (H-EDETAL-OH), the figures for the inhibition constant Ki on A9UPE9 PDZ [1] (setting [3]) and on DLG1-1 PDZ were 580 ± 160 µM and 460 ± 190 µM, respectively.
`CC(C)[C@H](NC(=O)[C@H](CCCCN)NC(=O)[C@H](CO)NC(=O)[C@H](CCC(=O)O)NC(=O)[C@H](CO)NC(=O)[C@H](C)N)C(=O)O` [Peptide B1AR] (H-ASESKV-OH) showed an inhibition constant Ki at A9UPE9 PDZ [1] (setting [3]) of 95 ± 30 µM.
The compound `CC(C)[C@H](NC(=O)[C@H](CCCCN)NC(=O)[C@H](CO)NC(=O)[C@H](CCC(=O)O)NC(=O)[C@H](CO)NC(=O)[C@@H](N)CCC(=O)O)C(=O)O` [GIRK3] (H-ESESKV-OH) returned an inhibitory constant (Ki) on A9UPE9 PDZ [1] (setting [3]) greater than 1000 µM.
On the same count and under the same terms, under `C[C@H](NC(=O)[C@H](CCC(=O)O)NC(=O)[C@H](CO)NC(=O)[C@H](CO)NC(=O)[C@H](CO)NC(=O)[C@@H](N)CCC(N)=O)C(=O)O` [GAIP] (H-QSSSEA-OH) stands greater than 1000 µM.
The compound `CC(C)[C@H](NC(=O)[C@H](CO)NC(=O)[C@H](CO)NC(=O)[C@H](CCC(=O)O)NC(=O)[C@H](CO)NC(=O)CN)C(=O)O` [Peptide A9UWP5_MONVE] (H-GSESSV-OH) returned a Ki on A9UPE9 PDZ [1] of 490 ± 110 µM.
Turning to `CC(C)C[C@H](NC(=O)[C@H](CC(N)=O)NC(=O)[C@@H](NC(=O)[C@H](CCC(=O)O)NC(=O)[C@H](CC(=O)O)NC(=O)[C@@H](N)Cc1c[nH]c2ccccc12)[C@@H](C)O)C(=O)O` [BPIX] (H-WDETNL-OH), the results for the inhibition constant (Ki) on A9UPE9 PDZ [1] (setting [3]) and at DLG1-1 PDZ were 330 ± 160 µM and 460 ± 140 µM, respectively.
For the compound `CC(C)C[C@H](NC(=O)[C@H](CCC(N)=O)NC(=O)[C@@H](NC(=O)[C@H](CCC(=O)O)NC(=O)[C@H](CCCNC(=N)N)NC(=O)[C@H](CCCNC(=N)N)NC(=O)[C@@H](NC(=O)[C@H](CCCNC(=N)N)NC(=O)[C@H](CO)NC(=O)[C@H](CO)NC(=S)Nc1ccc2c(c1)C(=O)OC21c2ccc(O)cc2Oc2cc(O)ccc21)[C@@H](C)O)[C@@H](C)O)C(=O)O` [FITC-SSRTRRETQL], at A9UPE9 PDZ [2] (duplicate experiments), the Kd – broadly, the equilibrium constant for the complex coming apart – came out at 19.5 ± 1.8 µM.
With `CC(C)C[C@H](NC(=O)[C@H](CCCNC(=N)N)NC(=O)[C@H](CO)NC(=O)[C@H](CCC(=O)O)NC(=O)[C@H](CO)NC(=O)[C@@H](N)CCC(N)=O)C(=O)O` [Peptide A9UP44] (H-QSESRL-OH), the affinity on A9UPE9 PDZ [1] (setting [3]) corresponds to a Ki of 64 ± 35 µM.
For `CC(C)C[C@H](NC(=O)[C@H](CCCNC(=N)N)NC(=S)Nc1ccc2c(c1)C(=O)OC21c2ccc(O)cc2Oc2cc(O)ccc21)C(=O)N[C@@H](CCC(N)=O)C(=O)N[C@@H](CCCNC(=N)N)C(=O)N[C@@H](CCCNC(=N)N)C(=O)N[C@@H](CCCNC(=N)N)C(=O)N[C@@H](CCC(=O)O)C(=O)N[C@H](C(=O)N[C@@H](CCC(N)=O)C(=O)N[C@H](C(=O)O)C(C)C)[C@@H](C)O` [F*-HPV18 E6], on A9UPE9 PDZ [2] (30 nM reporter peptide, triplicate experiments), the Kd is 6.9 µM and < 10 µM.
In turn, `CC(C)C[C@H](NC(=O)[C@@H](N)CCCNC(=N)N)C(=O)N[C@@H](CCC(N)=O)C(=O)N[C@@H](CCCNC(=N)N)C(=O)N[C@@H](CCCNC(=N)N)C(=O)N[C@@H](CCCNC(=N)N)C(=O)N[C@@H](CCC(=O)O)C(=O)N[C@H](C(=O)N[C@@H](CCC(N)=O)C(=O)N[C@H](C(=O)O)C(C)C)[C@@H](C)O` [HPV18 E6] registered an inhibitory constant (Ki) on A9UPE9 PDZ [1] (setting [3]) of 16 ± 1 µM.
For `CC(C)[C@H](NC(=O)[C@@H](NC(=O)[C@H](CO)NC(=O)[C@H](CCC(=O)O)NC(=O)[C@H](CCCNC(=N)N)NC(=O)[C@@H](N)Cc1c[nH]cn1)[C@@H](C)O)C(=O)O` [Peptide A9V6G5_MONBE] (H-HRESTV-OH), on A9UPE9 PDZ [1], the Ki is < 100 µM and 97 µM.

For the origin of these results see article PMC8512817 (Molecules, 2021).
